Molecular target: T1, Human PTP1B (Homo sapiens, UniProt P18031)
T1 construct: Human PTP1B (amino acid residues 1-298, cloned from a human placental library); made in house; host or cells: E. coli BL21(DE3)
T1 sequence (P18031 1-298): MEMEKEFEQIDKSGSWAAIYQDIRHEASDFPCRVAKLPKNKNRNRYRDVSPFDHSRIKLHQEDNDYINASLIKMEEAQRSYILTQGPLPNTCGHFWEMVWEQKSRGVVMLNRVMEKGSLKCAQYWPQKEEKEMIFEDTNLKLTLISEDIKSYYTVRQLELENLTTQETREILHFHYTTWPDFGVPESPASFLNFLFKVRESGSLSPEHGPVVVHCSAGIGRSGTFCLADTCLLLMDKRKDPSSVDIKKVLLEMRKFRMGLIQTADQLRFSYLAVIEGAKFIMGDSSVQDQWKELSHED
Assay: PTP1B activity, pNPP substrate, 96-well plate
Format: biochemical
Settings: 2 mM, control wells
Description: Human PTP1B (amino acid residues 1-298, cloned from a human placental library), without the GST tag and thrombin cleavage site, was inserted into a pMB replicon and transformed into E. coli BL21(DE3), a strain containing a chromosomal copy of the gene for T7 RNA polymerase under control of a lacUV5 promoter. Expression of PTP1B was induced with isopropyl thiogalactose and cells were lysed in lysis buffer comprising 50 mM Tris-HCl pH 7.5, 10% glycerol, 1 mM EDTA, 3 mM DTT, 3 mM MgCl2, and 0.2 mg/ml lysozyme with 1 mg/ml DNAse I. The soluble protein was purified by ion exchange, hydrophobic interaction and gel exclusion chromatography for use in assays to identify PTP1B inhibitors. The plasmid pGEX2K-SHP2 which encoded the catalytic domain of human SHP-2 (residues 252-529) was used to transform E. coli cells. […]
Human PTP1B activity was measured using p-nitrophenol phosphate (pNPP) as substrate in a 96-well microtiter plate format. An assay pH of 7.2 is used for standard assays (measured extinction coefficient=9800 at pH 7.2).
Standard assays were conducted at room temperature in a total volume of 0.2 ml that contains Hepes buffer (50 mM, pH 7.2), NaCl (50 mM), EDTA (1 mM), DTT (1 mM), bovine serum albumin (1 mg/ml), pNPP (1.25 mM) and PTP1B (500 ng/ml, 13.5 nM). […] The OD^405 was subsequently measured. […]

Q: `[Na+].[Na+].[Na+].[O]=[V]([O-])([O-])[O-]` [sodium orthovanadate] was tested. Which “inhibition of PTP1B-catalyzed hydrolysis of pNPP” value did it give?
A: completely

— patent US6498182B2, “Compounds” (Biovitrum AB, priority 2000, dated 2002)
